The values below come from article PMC8659031, “Substituted Aryl Benzylamines as Potent and Selective Inhibitors of 17β-Hydroxysteroid Dehydrogenase Type 3” (Molecules, 2021).

Read-outs that look alike come from different tables or passages of the source.

A short description of series [1]: Compound toxicity, MTS/Alamar Blue proliferation assay, PC-3. Particulars: human, PC-3 (AR-) prostate cancer cells; PC3 (AR-); read-out: Cytotoxicity IC50 (µM) PC3 (AR-). It counts as cell-based. As for the experimental part:
(§1) AR+ (LNCaP) and AR- (PC-3) PCa cell lines were used as standard lines to determine the cytotoxicity of HSD3 inhibitor compounds. Toxicity was assessed over 96 h in 96 well plates using the standard MTS/Alamar Blue proliferation assay and over longer durations by cell counting methodologies.

Series [2] concerns the target T1, 17β-HSD3 (Homo sapiens, UniProt P37058).
T1 construct: expressed in transfected cells; host or cells: human 293-EBNA cells, stably transfected
T1 sequence (P37058 1-310): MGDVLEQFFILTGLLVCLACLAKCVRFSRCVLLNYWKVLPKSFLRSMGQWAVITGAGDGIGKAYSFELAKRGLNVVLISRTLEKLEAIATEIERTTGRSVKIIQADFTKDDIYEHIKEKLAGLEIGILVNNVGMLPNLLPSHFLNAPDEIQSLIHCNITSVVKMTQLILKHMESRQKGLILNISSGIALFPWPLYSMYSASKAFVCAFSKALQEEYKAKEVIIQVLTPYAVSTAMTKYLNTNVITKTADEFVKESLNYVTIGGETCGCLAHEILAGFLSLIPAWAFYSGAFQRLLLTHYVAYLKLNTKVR
Nature of the series: Assay for 17β-HSD3 activity (TLC assay) in 293-EBNA cells stably transfected with 17β-HSD3. The class given is cell-based. Particulars: for inhibition at 10 µM: 293-EBNA, mean of at least two measurements, typically SD ±5%. As for the experimental part: Human 293-EBNA cells stably transfected with 17β-HSD3 were plated at 50,000 cells/well in 24 well plates in complete growth medium. After 48 h 2–3 nM [^3H]-androstenedione in assay medium (500 mL DMEM medium with 5 mL 100 × L-glutamine and 5 mL 7.5% sodium bicarbonate solution) was added with or without test compound at 1.5 mL/well (triplicate), and the cells incubated at 37 °C. Two hours later 1 mL medium was removed from each well and placed in a 125 × 16 mm glass test tube containing 25 µL of recovery solution (5000 dpm ^14C-testosterone and 25 µg unlabelled testosterone […], and the tubes vortexed at high speed for 2 × 30 s. After the samples had settled into two phases, they were snap-frozen in a dry ice/methanol bath. The upper organic phase was decanted into 75 × 12 mm tubes and evaporated to dryness under an airstream using a sample concentrator (TECHNE) at 40 °C. The samples were resuspended in ether (8 drops, then a further 3), spotted onto ca 60 F254 20 cm × 20 cm TLC plates and separated using a 4:1 v/v dichloromethane: ethyl acetate mobile phase. After drying the plates, the major spots were marked under a UV lamp, cut out and placed in individual scintillation vials containing 0.5 mL methanol. These were then shaken lightly and allowed to stand for 15 min before adding 10 mL of EcoScintA (scintillation fluid) to each tube along with 0.5 mL assay medium and counted in a scintillation spectrometer (Beckman, High Wycombe, Bucks, UK), using a program for duel [^3H/^14C] isotopes. The number of cells/well was then counted using a Coulter10 counter (Beckman). The inhibitory activity of the test compounds was then assessed by calculating the amount of product formed correcting for crossover between isotope counts, recovery, dilution and non-enzymatic degradation fmol/hr/million cells) with and without inhibitor (% inhibition).

The target in series [3] is T2, 17β-HSD Type 2 (Homo sapiens, UniProt P37059).
T2 sequence (P37059 1-387): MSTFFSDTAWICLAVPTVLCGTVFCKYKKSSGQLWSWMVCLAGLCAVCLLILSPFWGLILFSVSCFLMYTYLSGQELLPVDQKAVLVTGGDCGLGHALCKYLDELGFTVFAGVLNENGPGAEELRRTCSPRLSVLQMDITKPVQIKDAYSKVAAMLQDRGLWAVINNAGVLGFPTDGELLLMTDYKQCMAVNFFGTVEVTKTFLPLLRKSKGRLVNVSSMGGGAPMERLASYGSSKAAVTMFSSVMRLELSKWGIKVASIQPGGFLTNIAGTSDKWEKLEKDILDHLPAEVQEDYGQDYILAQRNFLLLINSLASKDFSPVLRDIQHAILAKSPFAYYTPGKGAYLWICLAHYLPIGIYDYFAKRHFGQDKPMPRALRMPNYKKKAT
The conditions noted are these: introduction; cited from earlier work.

For series [4], the target named is T2, 17β-HSD Type 2. The series is described as follows: 17β-HSD2 activity assay in MDA-MB-231 cells (E2 to E1). It counts as cell-based. Also on record: endogenous in cells; host or cells: MDA-MB-231 human breast cancer cells. As for the experimental part: MDA-MB-231 human breast cancer cells in T25 flasks were incubated with 2 nM [^3H]-E2 (41.3 Ci/mmol; PerkinElmer, Beaconsfield, Bucks, UK) in the presence or absence of 10 µM candidate 17β-HSD3 inhibitors. After 3 h at 37 °C, the steroids were isolated from the mixture by extraction with diethyl ether and procedural losses were measured using [^14C]-E1 (5000 dpm; PerkinElmer). Separation of [^3H]-E1 from [^3H]-E2 was achieved using thin layer chromatography, eluting with dichloromethane/ethyl acetate, 4:1 v/v and the amount of [^3H]-E1 produced was calculated from the […] [^3H] counts detected and recovery of [^14C]-E1 (Beckman LS 6000 SC). A positive control was used in this assay (IC50 5.4 μM) to ensure reproducible results were obtained.

For series [5], the system named is androstenedione-stimulated tumour growth. Also on record: method as in PMID 18786604, PMID 23132791. The conditions noted are these: mouse model; cited from earlier work.
Series [6] in a line: Compound toxicity, MTS/Alamar Blue proliferation assay, LNCaP. The class given is cell-based. Particulars: human, LNCaP (AR+) prostate cancer cells; read-out: Cytotoxicity IC50 (µM) LNCaP (AR+). As for the experimental part:
as §1
A general note: Alamar Blue is a resazurin reagent that responds to reducing activity.

Series [7] concerns LNCaP and PC-3 PCa cell lines. Also on record: method as in PMID 18786604, PMID 23132791. Particulars: introduction; cited from earlier work.
On the set-up of series [8]: method as in PMID 18786604, PMID 23132791. Particulars: introduction; cited from earlier work.
On the set-up of series [9]: method as in PMID 22512907. Particulars: given subcutaneously to rats; cited from earlier work.
Series [10] has as its system human 17β-HSD3. Also on record: method as in PMID 22512907. The conditions noted are these: whole HEK-293 cells over-expressing human 17β-HSD3; cited from earlier work.
The target of series [11] is T3, 17β-HSD Type 1 (Homo sapiens, UniProt P14061).
T3 construct: endogenous in cells; host or cells: T-47D breast cancer cells
T3 sequence (P14061 1-328): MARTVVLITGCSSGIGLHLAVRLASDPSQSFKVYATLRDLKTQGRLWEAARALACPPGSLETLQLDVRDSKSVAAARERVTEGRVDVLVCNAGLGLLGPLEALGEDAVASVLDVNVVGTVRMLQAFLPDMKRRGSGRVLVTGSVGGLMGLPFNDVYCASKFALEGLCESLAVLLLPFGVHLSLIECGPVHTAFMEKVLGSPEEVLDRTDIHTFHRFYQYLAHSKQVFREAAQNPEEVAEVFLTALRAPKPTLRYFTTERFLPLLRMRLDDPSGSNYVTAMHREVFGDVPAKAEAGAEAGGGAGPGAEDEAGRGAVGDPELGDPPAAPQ
The series is described as follows: 17β-HSD1 activity assay in T-47D breast cancer cells (estrone to estradiol). It counts as cell-based. The conditions noted are these: T47D, T-47D cells; for inhibition at 10 µM: tested at 10 μM. The procedure:
The assay is of a similar format to the 17β-HSD Type 3 TLC assay. T-47D breast cancer cells, which express a high ratio of 17β-HSD Type 1 to 17β-HSD Type 2, were used to test the conversion of labelled estrone to estradiol in the presence and absence of the potential inhibitors. The cells were incubated with [^3H]-estrone at a concentration of 2 nM, in the absence or presence of the inhibitors (10 μM). After incubation of the culture for 3 h at 37 °C, the products were isolated and separated by TLC using DCM/ EtOAc (4:1). The amount of estradiol formed was measured and compared to the control cells, where no inhibitor was present. Each assay was carried out in the presence of a positive control (IC50 of 27 nM) to ensure reproducible results were obtained.

[12] abbreviates: TLC assay, 293-EBNA[HSD3] cells, read-out: IC50 (17β-HSD3).

As a reminder, the IC50 is the point on the concentration scale where inhibition reaches its midpoint. As a reminder, the inhibition is the change of the read-out against control, counted positive when it falls. Take `CC(=O)N1CCCC(Nc2ccccc2Oc2ccc(Cl)cc2)c2ccccc21` (stereo not drawn) [STX2171]: the IC50 at 96 h in series [1] came out at 22 µM; in series [6], 15.7 µM. In addition, in [2] (setting [12]), the IC50 stood at 200 nM. Besides, the “selectivity for inhibition of 17β-HSD3 over 17β-HSD2” value in series [3] was “selective”. The inhibition at 10 µM in series [4] came out at 20.3%. Further, the “inhibition of androstenedione-stimulated tumour growth” value in series [5] was “potent inhibition”. In series [7], the cytotoxicity in words result was “weakly cytotoxic”. Moreover, the androgenicity result in [8] is recorded as “non-androgenic”.

Consider `C[C@@H]1CN(S(=O)(=O)c2ccccc2C(F)(F)F)[C@@H](C)CN1[C@@]1(O)CC[C@@]2(C)C(CCC3C2CC[C@]2(C)C(=O)CCC32)C1` (stereo partly drawn) [RM-532-105], for which the “plasma levels of T and DHT” value in series [9] is reported as “significantly decreased”. Further, in series [10], the 50% inhibitory concentration (IC50) was 0.005 µM.

Take `CC(=O)N1CCC(CC(=O)N2CCN(C(c3ccc(Cl)cc3)c3ccc(Cl)cc3)C[C@@H]2C(C)(C)C)CC1` [SCH-451659]: the half-inhibitory concentration (IC50) at 96 h is 6.8 µM in [1] and 5.5 µM in series [6]. For the same compound, the IC50 in [2] (Table 10, read-out: Inhibition of 17β-HSD Type 3 (IC50 nM)) is 5 nM. For the same compound, the inhibition at 10 µM in series [4] is 18.4%; in series [11], 19.6%.

Broadly, the melting point is the temperature, or range, at which the solid turns liquid. The compound `CC(=O)Nc1ccccc1CNc1ccccc1Oc1ccc(Cl)cc1` [Compound 1, N-(2-([2-(4-Chloro-phenoxy)-phenylamino]-methyl)-phenyl)-acetamide] returned a melting point of 194 to 196 °C. Further, the inhibition at 10 µM in [2] (TLC assay) came to 87%. Further, the half-inhibitory concentration (IC50) in series [2] (setting [12]) amounted to 900 nM. The inhibition at 10 µM in [4] came to 15.9%. Further, the inhibition at 1 µM in [11] (tested at 1 μM) was 1.3%.

Take `CC(=O)N1CCC(C(=O)Nc2ccccc2CNc2ccccc2Oc2ccc(Cl)cc2)CC1` [Compound 23, 1-Acetyl-piperidine-4-carboxylic acid (2-[2-(4-chloro-phenoxy)-phenylamino]-methyl-phenyl)-amide]: the melting point lay within 140 to 143 °C. For the same compound, the inhibition at 10 µM in [2] (TLC assay) stood at 91%. The IC50 in series [2] (setting [12]) turned out to be 3900 nM. The inhibition at 10 µM in series [11] is -2.3%.
